In brackets after ≈: the same amount, converted by molar mass. Where two headings read alike, the source gives them in different places.
How the values were obtained:
[1] = test system: P. falciparum 3D7 strain (Pf3D7); assay: Antiplasmodial activity against P. falciparum 3D7 blood-stage parasites (SYBR Green, 72 h); type: cell-based, Plasmodium falciparum; conditions: Plasmodium falciparum
[2] = test system: P. falciparum NF54 strain; assay: Antiplasmodial activity against P. falciparum NF54 (SYBR Green, 72 h); type: cell-based, Plasmodium falciparum; conditions: Plasmodium falciparum, NF54, drug-sensitive NF54, strain panel; read-out: IC50 ± SD, NF54
P. falciparum K1 strain = assay: Antiplasmodial activity against resistant P. falciparum K1; type: cell-based; conditions: Plasmodium falciparum
P. falciparum Dd2 strain = assay: Antiplasmodial activity against resistant P. falciparum Dd2; type: cell-based; conditions: Plasmodium falciparum
[3] = test system: P. falciparum RF12 strain; assay: Antiplasmodial activity against resistant P. falciparum RF12; type: cell-based; conditions: Plasmodium falciparum, read-out: IC50 ± SD, RF12
P. falciparum 7G8 strain = assay: Antiplasmodial activity against resistant P. falciparum 7G8; type: cell-based; conditions: Plasmodium falciparum; resistant strain 7G8; read-out: IC50 ± SD, 7G8
[4] = test system: P. falciparum TM90-2CB strain; assay: Antiplasmodial activity against resistant P. falciparum TM90-2CB; type: cell-based; conditions: Plasmodium falciparum; resistant strain TM90-2CB; read-out: IC50 ± SD, TM90-2CB
[5] = eLogD at pH 7.4, miniaturized shake flask method; type: physicochemical; conditions: 1-octanol/PBS (1:1, v/v), pH 7.4, pH 7.4, miniaturized shake flask method
Protocol: eLogD at pH 7.4 was determined using a miniaturized shake flask method. A solution of a presaturated mixture of 1-octanol and phosphate-buffered saline (PBS) (1:1, v/v) and the test compound (75 μM) was incubated at 25 °C with constant shaking (850 rpm) for 2h. After incubation, the organic and aqueous phases were separated, and samples of each phase were transferred to a plate for dilution. […] The samples were quantitated using LC-MS/MS. The experiment was carried out in duplicate. Propranolol, Amitriptyline, and Midazolam were used as reference standards.

[6] = Kinetic solubility at pH 7.4; type: physicochemical; conditions: phosphate-buffered saline, 25 °C, pH 7.4, aqueous buffer, kinetic from dmso stock; read-out: Kinetic solubility (Sol)
Protocol: Kinetic solubility assay was performed using UV–vis detection. […] The samples were filtered using a multiscreen solubility filter plate. The filtrate was diluted by 50% with MeCN. A five-point linearity curve was prepared in PBS/MeCN (1:1, v/v) at 200, 150, 75, 25, and 2.5 μM. Blank, linearity, and test samples (n = 2) were transferred to a UV-readable plate, and the plate was scanned for absorbance. Best-fit calibration curves were constructed using the calibration standards and used to determine the test sample solubility. The experiment was carried out in duplicate. Diethylstilbestrol, Haloperidol, and Diclofenac Sodium were used as reference standards.

Rat hepatocyte stability = type: in vitro ADME; conditions: rat hepatocyte stability
Protocol: The reaction was terminated with the addition of ice-cold MeCN at designated time points. The samples were then centrifuged (4200 rpm) for 20 min at 20 °C, and the supernatant was half diluted in water and then analyzed using LCMS/MS. The % parent compound remaining, half-life (t 1/2), and clearance (CLint) were calculated using standard methodology. The experiment was carried out in duplicate. Diltiazem, 7-Ethoxy Coumarin, Propranolol, and Midazolam were used as reference standards.

[7] = Human liver microsome stability; type: in vitro ADME; conditions: human, pooled human liver microsomes, human microsomal intrinsic clearance; read-out: hMics, human microsome Clint
Protocol: A solution of the test compounds in phosphate buffer solution (1 μM) was incubated in pooled human or mouse liver microsomes (0.5 mg/mL) for 0, 5, 20, 30, 45, and 60 min at 37 °C in the presence and absence of an NADPH regeneration system (NRS). The tests were conducted by […], India. The reaction was terminated with the addition of ice-cold acetonitrile, containing a […] standard, at designated time points. The sample was centrifuged (4200g) for 20 min at 20 °C and the supernatant was diluted by half in water and then analyzed by LC-MS/MS. The % parent compound remaining, half-life (t 1/2) and clearance (CLint) were calculated using standard methodology. The experiment was carried out in duplicate. Verapamil, diltiazem, phenacetin, and imipramine were used as reference standards.

[8] = Resazurin assay for cytotoxicity in HepG2 cells; type: cell-based, human; conditions: human, HepG2 cells; HepG2 cell line, 72 h, resazurin
Protocol: HepG2 cells were trypsinized, counted, and distributed in a 96-well plate at a density of 30,000 cells per well (180 μL). The plate was incubated at 37 °C and 5% CO2 for 24 h. Following incubation, 20 μL of serial dilutions of the tested compounds were added to the wells, with concentrations ranging from 30 to 0.47 μM. The plate was incubated for an additional 72 h at 37 °C and 5% CO2. Untreated cells served as positive controls, while wells containing only medium were used as negative controls. Postincubation, microscopy was employed to determine the highest compound concentration for treatment results. […] Concentration–response curves were generated, and half-maximal inhibitory concentration (CC50) values were determined using nonlinear regression analysis.

[9] = test system: male P. falciparum gametocytes; assay: P. falciparum dual gamete formation assay (Pf DGFA), male gametocytes; type: cell-based; conditions: Plasmodium falciparum, read-out: inhibition against male gametocytes
[10] = test system: female P. falciparum gametocytes; assay: P. falciparum dual gamete formation assay (Pf DGFA), female gametocytes; type: cell-based; conditions: Plasmodium falciparum, read-out: inhibition against female gametocytes
[11] = test system: P. falciparum 3D7 (chloroquine-sensitive); assay: Effect of verapamil on inhibitory activity in P. falciparum 3D7; type: cell-based; conditions: Plasmodium falciparum
[12] = test system: P. falciparum Dd2 (chloroquine resistance); assay: Effect of verapamil on inhibitory activity in P. falciparum Dd2; type: cell-based; conditions: Plasmodium falciparum; Dd2, absence of verapamil; read-out: IC50^Dd2 (without VP)
[13] = test system: P. vivax field isolates from Brazil; assay: Ex vivo drug susceptibility of P. vivax field isolates; type: cell-based; conditions: Plasmodium vivax, ex vivo
[14] = test system: P. falciparum field isolates from Brazil; assay: Ex vivo drug susceptibility of P. falciparum field isolates; type: cell-based, Plasmodium falciparum
P. falciparum 3D7 clone = assay: Ex vivo schizont maturation assay, 3D7 laboratory strain control; type: cell-based; conditions: Plasmodium falciparum, ex vivo assay conditions
[15] = test system: P. falciparum (3D7 strain) digestive vacuole; assay: Digestive vacuole homeostasis, acridine orange fluorescence; type: cell-based, Plasmodium falciparum; conditions: 10 μM, 3 min treatment, isolated parasites
Protocol: The sample was incubated for 40 min at 37 °C. […] Fluorescence was measured in a Hitachi F-7000 fluorimeter (Tokyo, Japan) by continuous measurement of the fluorescence (λex = 488 nm; λem = 560 nm) at 37 °C. Experiments were performed in triplicate.

[16] = test system: synchronized P. falciparum parasites (3D7 strain); assay: P. falciparum asexual blood stage-specificity assay (8 h exposures); type: cell-based, Plasmodium falciparum

**Q.** Which IC50 ([1]; 3D7, 72 h, 3D7 strain, 72 h, SYBR Green, read-out: Pf3D7-IC50) does the source give for `O=C(c1cc2cc(C(F)(F)F)ccc2[nH]1)N(Cc1cccnc1)CC1CCNC1` (stereo not shown) [Compound 6f, N-(3-Pyridylmethyl)-N-(pyrrolidin-3-ylmethyl)-5-(trifluoromethyl)-1H-indole-2-carboxamide] here?
**A.** Its IC50 is 400 ± 100 nM.

**Q.** What about the IC50 ([1]; 3D7, drug-sensitive 3D7, strain panel, read-out: IC50 ± SD, 3D7) of the same molecule?
**A.** The IC50 was 400 ± 100 nM.

**Q.** And the IC50 ([1]; 3D7 / DD2, sensitive 3D7, in parallel with K1 and Dd2, read-out: IC50^3D7 ± SD)?
**A.** The IC50 was 400 ± 200 nM.

**Q.** What about the IC50 [2] of the same molecule?
**A.** Its IC50 is 370 ± 60 nM.

**Q.** And the IC50 (P. falciparum K1 strain; 3D7 / K1, resistant K1, in parallel with 3D7, read-out: IC50^K1 ± SD)?
**A.** Its IC50 is 4500 ± 200 nM.

**Q.** And the IC50 (P. falciparum K1 strain; resistant strain K1, strain panel, read-out: IC50 ± SD, K1)?
**A.** Its IC50 is 7300 ± 200 nM.

**Q.** What about the IC50 (P. falciparum Dd2 strain; 3D7 / DD2, resistant Dd2, in parallel with 3D7, read-out: IC50^Dd2 ± SD) of the same molecule?
**A.** Its IC50 is > 10000 nM.

**Q.** What about the IC50 (P. falciparum Dd2 strain; resistant strain Dd2, strain panel, read-out: IC50 ± SD, Dd2) of the same molecule?
**A.** Its IC50 is 2600 ± 400 nM.

**Q.** What about the IC50 [3] of the same molecule?
**A.** The IC50 was 2000 ± 300 nM.

**Q.** And the IC50 (P. falciparum 7G8 strain)?
**A.** The IC50 was 1800 ± 300 nM.

**Q.** And the IC50 [4]?
**A.** Its IC50 is 2800 ± 500 nM.

**Q.** And the logD at 2 h [5]?
**A.** The logD at 2 h was 1.1.

**Q.** And the solubility kinetic at 2 h [6]?
**A.** The solubility kinetic at 2 h was 195 µM (≈ 78.5 µg/mL).

**Q.** What about the “R Heps (Clint)” value (Rat hepatocyte stability) of the same molecule?
**A.** The value was 2.6 μL/min/10^6.

**Q.** What about the microsomal CLint at 1 μM [7] of the same molecule?
**A.** The microsomal CLint at 1 μM was 11 µL/min/mg.

**Q.** What about the CC50 at 72 h [8] of the same molecule?
**A.** The CC50 at 72 h was > 30000 nM.

**Q.** And the inhibition at 1 µM [9]?
**A.** Its inhibition at 1 µM is 28%.

**Q.** And the inhibition at 1 µM [10]?
**A.** Its inhibition at 1 µM is 7%.

**Q.** What about the IC50 ([11]; 3D7, verapamil experiment, read-out: IC50 in 3D7 strain) of the same molecule?
**A.** Its IC50 is ~200 nM.

**Q.** And the IC50 ([11]; read-out: IC50^3D7 (10 μM VP), 3D7, presence of 10 μM verapamil)?
**A.** Its IC50 is 460 nM.

**Q.** What about the IC50 ([11]; 3D7, absence of verapamil, read-out: IC50^3D7 (without VP)) of the same molecule?
**A.** Its IC50 is 196 nM.

**Q.** And the IC50 [12]?
**A.** Its IC50 is 4030 nM.

**Q.** And the IC50 ([13]; 9 clinical isolates, read-out: median IC50 (range), P. vivax (9))?
**A.** The IC50 was 698 nM.

**Q.** And the EC50 ([13]; read-out: median EC50 against P. vivax field isolates)?
**A.** The EC50 was 698 nM.

**Q.** What about the EC50 ([13]; read-out: range of EC50 across individual P. vivax isolates) of the same molecule?
**A.** Its EC50 is 636 to 910 nM.

**Q.** And the IC50 ([14]; Plasmodium falciparum, 7 clinical isolates, ex vivo, read-out: median IC50 (range), P. falciparum (7))?
**A.** Its IC50 is > 10000 nM.

**Q.** And the “activity against P. falciparum field isolates” value ([14]; concentration of 10 μM)?
**A.** Its value is “inactive”.

**Q.** And the EC50 (P. falciparum 3D7 clone; 3D7, read-out: EC50 against the P. falciparum 3D7 clone)?
**A.** The EC50 was 363 nM.

**Q.** And the IC50 (P. falciparum 3D7 clone; 3D7 control, read-out: P. falciparum 3D7 IC50)?
**A.** The IC50 was 363 nM.

**Q.** And the “effect on digestive vacuole H+ homeostasis (acridine orange fluorescence)” value [15]?
**A.** The value was “interferes with proton (H^+) homeostasis”.

**Q.** What about the “timing of peak activity (lowest IC50^8h) in asexual blood stages” value [16] of the same molecule?
**A.** The value was “increased potency on the early ring forms”.

Source: article PMC12531871, “Indole-2-carboxamides Optimization for Antiplasmodial Activity” (ACS Bio & Med Chem Au, 2025)
